{"source": "patent US20060287251A1", "about": "“Combination therapy for glycaemic control” (priority 2003, published 2006)", "test_system": "diabetic Zucker (fa/fa) rats", "experiment": "Glutaminyl thiazolidine and Metformin alone or in combination, glycemic control in diabetic Zucker (fa/fa) rats", "type": "in vivo, rat", "conditions": "b.i.d. oral; for reactive and absolute G-AUC: p<0.05 vs. Control; for glucose tolerance curve in the OGTT: vs. Control", "experimental": "Ten or eleven weeks old male Zucker (fa/fa) rats were purchased from Charles River (Sulzfeld, Germany). Animals were kept under standardized semi-barrier conditions with controlled temperature (22±2° C.) on a 12/12 hours light/dark cycle (light on at 06:00 a.m.). Standard pelleted chow (ssniff®, Soest, Germany) and tap water acidified with HCl were allowed ad libitum. At the age of 12 weeks the animals (N=42) were divided in random order into six experimental groups to be medicated. Definition of the Experimental Groups for the Medications (GT=glutaminyl thiazolidine):\nThe single or combined doses per kg b.w. were solved in 5 mL dist. water for oral administration.\nThe study was started with the 12 to 13 weeks old Zucker (fa/fa) rats. At the beginning of the study an OGTT was performed (2 g glucose/kg body weight (b.w.); administration volume: 5 mL/kg of a 40% solution; B. Braun Melsungen, Melsungen, Germany) after a 16 h fast. […] Dosing was performed at t=5 min before OGTT by gavage.\nBlood samples were taken from tail veins to measure blood glucose and serum insulin at −15, ±0 min, 15, 30, 60, 90, 120 and 180 min (the latter time without insulin samples) with respect to time of glucose administration.\nAfter the first OGTT the animals in the groups were dosed twice daily with the respective drugs at 08:00 AM and at 04:00 PM, respectively:\nDuring the two weeks of medication morning blood glucose was measured before the 08:00 AM medication at Monday, Wednesday and Friday.\nFood intake was determined every day during the time of medication.\nAll the animals were weighted three times per week at 7:30 AM.\nA second OGTT was performed after two weeks of medication (Day 15). The food was withdrawn at 04:00 PM the day before (16 h fast). The OGTT was performed with pre-medication at −5 min and oral glucose loading at ±0 min. Blood samples were taken from tail veins to measure blood glucose, and serum insuline at −15, ±0 min, 15, 30, 60, 90, 120 and 180 min (the latter time without insulin samples).\nGlycated hemoglobin was measured before (Day −7) and on Day 18.\nGlucose-For determination of glucose 20 μL blood were collected at −15, ±0 min (before OGTT) and 15, 30, 60, 90, 120 and 180 min post OGTT.\nInsulin-Insulin concentrations were assayed by the antibody RIA method (Linco Research, Inc. St. Charles, Mo., USA).\nGlycated haemoglobin-Percentage of glycated hemoglobin A (HbA1c) was estimated with the “DCA 2000R Hämoglobin A1c-Reagenz kit”(Bayer Vital GmbH, Fernwald, Germany).\nThe body weight was measured using a platform balance (Scaltec, Heiligenstadt, Germany).\nMixed venous blood samples from the tails were collected into 20 μL glass capillaries, which were placed in standard tubes filled with 1 ml solution for hemolysis (blood glucose measurement) and in sample tubes for serum insulin (50 μL blood).\nRaw data of glucose analysis were provided by IDK to probiodrug in Excel format as soon as possible. Data for each drug and each parameter (glucose, insulin) were summarized by descriptive statistics (mean, SEM). […] Changes from baseline were calculated and summarized by descriptive statistic.", "key": {"[1]": {"conditions": "GT 60 mg/kg b.w. and/or Metformin 125 mg/kg b.w. (Met-low)"}, "[2]": {"conditions": "Metformin 300 mg/kg b.w. (Met-high) with or without GT 60 mg/kg b.w."}}, "data": [{"smiles": "CN(C)C(=N)N=C(N)N", "note": "[Metformin, 1,1-Dimethylbiguanidine]", "values": [{"measurement": "reactive and absolute G-AUC", "setting": "[1]", "value": "significantly reduced"}, {"measurement": "glucose tolerance curve in the OGTT", "setting": "[1]", "value": "significantly improved glucose tolerance curves"}, {"measurement": "reactive and absolute G-AUC", "setting": "[2]", "value": "once more lowered"}, {"measurement": "glucose tolerance curve in the OGTT", "setting": "[2]", "value": "further improvement of glucose tolerance curve"}]}]}
